From patent US20250154172A1, “PRMT5 INHIBITORS AND USES THEREOF” (Gilead Sciences, Inc., priority 2023, published 2025) come the findings set out here.

For orientation: CC50 means the concentration giving 50% cytotoxicity. Low readings indicate greater toxicity to the cells, high ones lower toxicity to the cells.

This assay deals with HCT116 MTAP-deleted cell lines. As to the kind of experiment: Cell viability assay for HCT116 isogenic pair (CellTitre-Glo, 7 days). The note with it: Homo sapiens, HCT-116, 168 h, 7 days of treatment, cell line not given. It counts as cell-based. The procedure:
Control compounds were analyzed in parallel each time for quality control.
In Brief, on Day −1, a serial dilution of stock compounds in DMSO was performed using BioMek liquid handlers and dispensed using Echo acoustic dispenser into 384 well plates. Both tool compounds and sample compounds were spotted in the same plate for a dose response of PRMT5 inhibitors. Compound plates were stored as frozen until the cells were ready for seeding.
On Day 0, 100 HCT WT or HCT116 MTAP-deleted cells were seeded in compound-containing 384 well plates (50 μl per well) in RPMI 1640 media supplemented with 10% heat inactivated fetal bovine serum, Glutamax and penicillin streptomycin using EL460 liquid dispenser 5 μl cassette (BioTek, part no. 7170011). After equilibrating the plate in room temperature, the cells were incubated for 7 days inside the sealed incubator set at 37° C. with 90% humidity and 5% CO2.
On Day 7, the viability of cells was measured using a CTG assay kit (CellTitre-Glo; Promega cat no. G7573). Shortly, 40 μl per well of luminescent cell viability assay reagent were dispensed using EL460 liquid dispenser 5 μl cassette. CTG luminescence signal was measured using an EnVision plate reader (PerkinElmer) in accordance with manufacturer's instruction. The CCso values for each compound after 7 days of treatment were calculated using 4 parameter non-linear logistical curve fit.
For the cell viability assay ie CC50 shown in nM in Table 3.
Turning to `C[C@@H]1CN(C(=O)c2cc3c(cn2)nc(N)c2cnn(C)c23)[C@H]2c3ccc(Br)c(F)c3C[C@H]2O1` (single isomer, unassigned) [Example Ca-30], the CC50 stood at 75 nM. The molecule `Cn1ncc2c(N)nc3cnc(C(=O)N4CCC[C@@H]5Oc6cc(OC(F)(F)F)ccc6[C@@H]54)cc3c21` [Example Ca-6, (4-amino-1-methyl-1H-pyrazolo[4,3-c][1,7]naphthyridin-8-yl)((4aS,9bS)-7-(trifluoromethoxy)-3,4,4a,9b-tetrahydrobenzofuro[3,2-b]pyridin-1(2H)-yl)methanone] came in with a cytotoxic concentration (CC50) of 8 nM. Consider `Cn1ncc2c(N)nc3cnc(C(=O)N4CCO[C@@H]5Cc6cc(C(F)(F)F)ccc6[C@@H]54)cc3c21` [Example Ca-54, (4-amino-1-methyl-1H-pyrazolo[4,3-c][1,7]naphthyridin-8-yl)((4aS,9aR)-7-(trifluoromethyl)-2,3,9,9a-tetrahydroindeno[2,1-b][1,4]oxazin-4(4aH)-yl)methanone], for which the CC50 turned out to be 16 nM. `Cn1ncc2c(N)nc3cnc(C(=O)N4CC[C@H]5C[C@@H]4c4ccc(C(F)(F)F)cc4O5)cc3c21` [Example Ca-45, (4-amino-1-methyl-1H-pyrazolo[4,3-c][1,7]naphthyridin-8-yl)((2S,6R)-9-(trifluoromethyl)-3,4-dihydro-2H-2,6-methanobenzo[b][1,5]oxazocin-5(6H)-yl)methanone]: half-maximal cytotoxicity (CC50) was put at 5 nM. The figure for `Nc1nc2cnc(C(=O)N3CC[C@H]4C[C@@H]3c3c(Cl)cc(C(F)(F)F)cc3O4)cc2c2c1COC2` [Example Ca-60, (4-amino-1,3-dihydrofuro[3,4-c][1,7]naphthyridin-8-yl)((2S,6R)-7-chloro-9-(trifluoromethyl)-3,4-dihydro-2H-2,6-methanobenzo[b][1,5]oxazocin-5(6H)-yl)methanone] is 227 nM. For `Cc1ccc2c(c1)C[C@H]1OCCN(C(=O)c3cc4c(cn3)nc(N)c3cnn(C)c34)[C@@H]21` [Example Ca-36, (4-amino-1-methyl-1H-pyrazolo[4,3-c][1,7]naphthyridin-8-yl)((4aS,9aR)-7-methyl-2,3,9,9a-tetrahydroindeno[2,1-b][1,4]oxazin-4(4aH)-yl)methanone], the CC50 was 95 nM. The molecule `Nc1nc2cnc(C(=O)N3C[C@@H](F)C[C@@H]4Oc5cc(C(F)(F)F)cc(F)c5[C@@H]43)cc2c2c1COC2` [Example Ca-57, (4-amino-1,3-dihydrofuro[3,4-c][1,7]naphthyridin-8-yl)((3S,4aS,9bS)-3,9-difluoro-7-(trifluoromethyl)-3,4,4a,9b-tetrahydrobenzofuro[3,2-b]pyridin-1(2H)-yl)methanone] had a cytotoxic concentration (CC50) of 20 nM. With `Cn1ncc2c(N)nc3ccc(C(=O)N4CCOC5CCc6ccccc6C54)cc3c21` (stereo not shown) [Example Ca-20, 2,3,4a,5,6,10b-hexahydrobenzo[f][1,4]benzoxazin-1-yl-(4-amino-1-methyl-pyrazolo[4,3-c]quinolin-8-yl)methanone], the CC50 worked out at 46 nM. On to `Nc1nc2cnc(C(=O)N3CCC[C@@H]4Oc5nc(C(F)(F)F)ccc5[C@@H]43)cc2c2c1COC2` (racemic) [Example Ca-32, Rac-(4-amino-1,3-dihydrofuro[3,4-c][1,7]naphthyridin-8-yl)((4aS,9bS)-7-(trifluoromethyl)-3,4,4a,9b-tetrahydrofuro[2,3-b:4,5-b′]dipyridin-1(2H)-yl)methanone], for which half-maximal cytotoxicity (CC50) was put at 54 nM. `Cn1ncc2c3cc(C(=O)N4CCC[C@@H]5Oc6cc(C(F)(F)F)ccc6[C@@H]54)ncc3nc(N)c21` [Example Ca-43, (4-amino-3-methyl-3H-pyrazolo[3,4-c][1,7]naphthyridin-8-yl)((4aS,9bS)-7-(trifluoromethyl)-3,4,4a,9b-tetrahydrobenzofuro[3,2-b]pyridin-1(2H)-yl)methanone] yielded a CC50 of 56 nM.
